Source: patent publication US11547644B2, “Emulsions comprising cationic emulsifiers based on MDIPA ester quats” (Evonik Operations GmbH, priority 2015, dated 2023)

Tests used:
[1] = Biodegradability in water, OECD 301
Source text: (§1) Consequently, an emulsifier according to the invention (Example 2) was investigated compared to distearyldimonium chloride with the help of various OECD tests.

[2] = system: invertebrate aquatic animals; experiment: Acute Immobilization Test (OECD 202); assay type: in vivo
Source text: as §1

Daphnia Magna = Daphnia Magna Reproduction Test (OECD 211); settings: in vivo
Source text: as §1

CCCCCCCCCCCCCCCCCC[N+](C)(C)CCCCCCCCCCCCCCCCCC.[Cl-] [Distearyldimonium Chloride]
Biodegradability in water [1]: OECD 301: 3% (28 d)
Short-term toxicity towards invertebrate aquatic animals, EC50(48h) [2]: EC-50(48h) = 0.16 mg/l
Long-term toxicity towards invertebrate aquatic animals, NOEC(21 d) (Daphnia Magna): NOEC(21 d) = 0.38 mg/l
